Reference: patent CN113813388A, “一种眼用纳米胶束及其制备方法和应用” (Zhejiang University ZJU, priority 2021, dated 2021)

How the values were obtained:
[1] = after topical ocular administration; cited from earlier work
[2] = H2O2 (ROS) scavenging assay with hydrogen peroxide detection kit (S0038, Beyotime); format: biochemical; details: within 15 min; Tempo concentration 100 μg/mL-1; 500 μM H2O2 in 0.01 M PBS pH 7.4

CC1(C)CCCC(C)(C)N1[O] [Tempo]
rapidly cleared, time after application [1]: 15 to 30 s | eliminated H2O2 [2]: 78.9%
